Reference: PubChem BioAssay AID1259407 (Chemical Carcinogenesis Research Information System (CCRIS), 2018)
Activity calls are given as the source filed them. How the calls were made is not given here.

Tested on: CCRIS mutagenicity, Ames/micronucleus/aberration tests
Assay: CCRIS mutagenicity studies
[1] = Test System: AMES SALMONELLA TYPHIMURIUM, Strain/Indicator: TA98, Metabolic Activation: NONE, Method: STANDARD PLATE
[2] = Test System: AMES SALMONELLA TYPHIMURIUM, Strain/Indicator: TA98, Metabolic Activation: RAT, LIVER, S-9, AROCLOR 1254, Method: STANDARD PLATE
[3] = Test System: AMES SALMONELLA TYPHIMURIUM, Strain/Indicator: TA100, Metabolic Activation: NONE, Method: STANDARD PLATE
[4] = Test System: AMES SALMONELLA TYPHIMURIUM, Strain/Indicator: TA100, Metabolic Activation: RAT, LIVER, S-9, AROCLOR 1254, Method: STANDARD PLATE
[5] = Test System: AMES SALMONELLA TYPHIMURIUM, Strain/Indicator: TA1535, Metabolic Activation: NONE, Method: STANDARD PLATE
[6] = Test System: AMES SALMONELLA TYPHIMURIUM, Strain/Indicator: TA1535, Metabolic Activation: RAT, LIVER, S-9, AROCLOR 1254, Method: STANDARD PLATE
[7] = Test System: AMES SALMONELLA TYPHIMURIUM, Strain/Indicator: TA1537, Metabolic Activation: NONE, Method: STANDARD PLATE
[8] = Test System: AMES SALMONELLA TYPHIMURIUM, Strain/Indicator: TA1537, Metabolic Activation: RAT, LIVER, S-9, AROCLOR 1254, Method: STANDARD PLATE
[9] = Test System: AMES SALMONELLA TYPHIMURIUM, Strain/Indicator: TA1538, Metabolic Activation: NONE, Method: STANDARD PLATE
[10] = Test System: AMES SALMONELLA TYPHIMURIUM, Strain/Indicator: TA1538, Metabolic Activation: RAT, LIVER, S-9, AROCLOR 1254, Method: STANDARD PLATE

Q: `C=C1CC[C@H]2C[C@@H]1C2(C)C` was tested. Which mutagenic call (Test System: AMES SALMONELLA TYPHIMURIUM, Strain/Indicator: TA98, Metabolic Activation: HAMSTER, LIVER, S-9, AROCLOR 1254 (2.5-20%), Method: PREINCUBATION) did it give?
A: Its mutagenic call is “inactive; negative”.

Q: What about the mutagenic call (Test System: AMES SALMONELLA TYPHIMURIUM, Strain/Indicator: TA98, Metabolic Activation: HAMSTER, LIVER, S-9, AROCLOR 1254, Method: STANDARD PLATE) of the same molecule?
A: Its mutagenic call is “inactive; negative”.

Q: What about the mutagenic call [1] of the same molecule?
A: Its mutagenic call is “inactive; negative”.

Q: What about the mutagenic call [2] of the same molecule?
A: Its mutagenic call is “inactive; negative”.

Q: And the mutagenic call (Test System: AMES SALMONELLA TYPHIMURIUM, Strain/Indicator: TA100, Metabolic Activation: HAMSTER, LIVER, S-9, AROCLOR 1254 (2.5-20%), Method: PREINCUBATION)?
A: Its mutagenic call is “inactive; negative”.

Q: What about the mutagenic call (Test System: AMES SALMONELLA TYPHIMURIUM, Strain/Indicator: TA100, Metabolic Activation: HAMSTER, LIVER, S-9, AROCLOR 1254, Method: STANDARD PLATE) of the same molecule?
A: Its mutagenic call is “inactive; negative”.

Q: What about the mutagenic call [3] of the same molecule?
A: The mutagenic call was “inactive; negative”.

Q: And the mutagenic call [4]?
A: Its mutagenic call is “inactive; negative”.

Q: And the mutagenic call (Test System: AMES SALMONELLA TYPHIMURIUM, Strain/Indicator: TA102, Metabolic Activation: HAMSTER, LIVER, S-9, AROCLOR 1254, Method: PREINCUBATION)?
A: The mutagenic call was “inactive; negative”.

Q: What about the mutagenic call (Test System: AMES SALMONELLA TYPHIMURIUM, Strain/Indicator: TA102, Metabolic Activation: NONE, Method: PREINCUBATION) of the same molecule?
A: Its mutagenic call is “inactive; negative”.

Q: And the mutagenic call (Test System: AMES SALMONELLA TYPHIMURIUM, Strain/Indicator: TA102, Metabolic Activation: RAT, LIVER, S-9, AROCLOR 1254, Method: PREINCUBATION)?
A: Its mutagenic call is “inactive; negative”.

Q: And the mutagenic call (Test System: AMES SALMONELLA TYPHIMURIUM, Strain/Indicator: TA1535, Metabolic Activation: HAMSTER, LIVER, S-9, AROCLOR 1254, Method: STANDARD PLATE)?
A: The mutagenic call was “inactive; negative”.

Q: What about the mutagenic call [5] of the same molecule?
A: The mutagenic call was “inactive; negative”.

Q: And the mutagenic call [6]?
A: Its mutagenic call is “inactive; negative”.

Q: And the mutagenic call (Test System: AMES SALMONELLA TYPHIMURIUM, Strain/Indicator: TA1537, Metabolic Activation: HAMSTER, LIVER, S-9, AROCLOR 1254, Method: STANDARD PLATE)?
A: Its mutagenic call is “inactive; negative”.

Q: What about the mutagenic call [7] of the same molecule?
A: The mutagenic call was “inactive; negative”.

Q: And the mutagenic call [8]?
A: Its mutagenic call is “inactive; negative”.

Q: What about the mutagenic call (Test System: AMES SALMONELLA TYPHIMURIUM, Strain/Indicator: TA1538, Metabolic Activation: HAMSTER, LIVER, S-9, AROCLOR 1254, Method: STANDARD PLATE) of the same molecule?
A: The mutagenic call was “inactive; negative”.

Q: And the mutagenic call [9]?
A: Its mutagenic call is “inactive; negative”.

Q: And the mutagenic call [10]?
A: Its mutagenic call is “inactive; negative”.

Q: And the mutagenic call (Test System: Mouse lymphoma, Strain/Indicator: L5178Y (tk+/tk-), Metabolic Activation: None, Method: Suspension/plate)?
A: Its mutagenic call is “inactive; negative”.

Q: What about the mutagenic call (Test System: Mouse lymphoma, Strain/Indicator: L5178Y (tk+/tk-), Metabolic Activation: Rat, Liver, S-9, Aroclor 1254, Method: Suspension/plate) of the same molecule?
A: Its mutagenic call is “inactive; inconcludive (previous evaluation negative)”.

Q: What does the source list for `OCCCCO`?
A: mutagenic call (Test System: AMES SALMONELLA TYPHIMURIUM, Strain/Indicator: TA97, Metabolic Activation: HAMSTER, LIVER, S-9, AROCLOR 1254 (10 OR 30%), Method: PREINCUBATION): inactive; negative; mutagenic call (Test System: AMES SALMONELLA TYPHIMURIUM, Strain/Indicator: TA97, Metabolic Activation: NONE, Method: PREINCUBATION): inactive; negative; mutagenic call (Test System: AMES SALMONELLA TYPHIMURIUM, Strain/Indicator: TA97, Metabolic Activation: RAT, LIVER, S-9, AROCLOR 1254 (10 OR 30%), Method: PREINCUBATION): inactive; negative; mutagenic call (Test System: AMES SALMONELLA TYPHIMURIUM, Strain/Indicator: TA98, Metabolic Activation: HAMSTER, LIVER, S-9, AROCLOR 1254 (10 OR 30%), Method: PREINCUBATION): inactive; negative; mutagenic call (Test System: AMES SALMONELLA TYPHIMURIUM, Strain/Indicator: TA98, Metabolic Activation: NONE, Method: PREINCUBATION): inactive; negative; mutagenic call (Test System: AMES SALMONELLA TYPHIMURIUM, Strain/Indicator: TA98, Metabolic Activation: RAT, LIVER, S-9, AROCLOR 1254 (10 OR 30%), Method: PREINCUBATION): inactive; negative; mutagenic call (Test System: AMES SALMONELLA TYPHIMURIUM, Strain/Indicator: TA100, Metabolic Activation: HAMSTER, LIVER, S-9, AROCLOR 1254 (10%), Method: PREINCUBATION): inactive; negative; mutagenic call (Test System: AMES SALMONELLA TYPHIMURIUM, Strain/Indicator: TA100, Metabolic Activation: HAMSTER, LIVER, S-9, AROCLOR 1254 (30%), Method: PREINCUBATION): inactive; negative; mutagenic call (Test System: AMES SALMONELLA TYPHIMURIUM, Strain/Indicator: TA100, Metabolic Activation: NONE, Method: PREINCUBATION): inactive; negative; mutagenic call (Test System: AMES SALMONELLA TYPHIMURIUM, Strain/Indicator: TA100, Metabolic Activation: RAT, LIVER, S-9, AROCLOR 1254 (10 OR 30%), Method: PREINCUBATION): inactive; negative; mutagenic call (Test System: AMES SALMONELLA TYPHIMURIUM, Strain/Indicator: TA1535, Metabolic Activation: HAMSTER, LIVER, S-9, AROCLOR 1254 (10 OR 30%), Method: PREINCUBATION): inactive; negative; mutagenic call (Test System: AMES SALMONELLA TYPHIMURIUM, Strain/Indicator: TA1535, Metabolic Activation: NONE, Method: PREINCUBATION): inactive; negative; mutagenic call (Test System: AMES SALMONELLA TYPHIMURIUM, Strain/Indicator: TA1535, Metabolic Activation: RAT, LIVER, S-9, AROCLOR 1254 (10 OR 30%), Method: PREINCUBATION): inactive; negative

Q: For `BrCc1ccc(Br)cc1`, which mutagenic call (Test System: AMES SALMONELLA TYPHIMURIUM, Strain/Indicator: TA97A, Metabolic Activation: NONE, Method: STANDARD PLATE) is on record?
A: The mutagenic call was “inactive; negative”.

Q: And the mutagenic call (Test System: AMES SALMONELLA TYPHIMURIUM, Strain/Indicator: TA97A, Metabolic Activation: RAT LIVER S-9, PHENOBARBITAL, BETA-NAPHTHOFLAVONE, 3.5%, Method: STANDARD PLATE)?
A: Its mutagenic call is “inactive; negative”.

Q: And the mutagenic call [1]?
A: Its mutagenic call is “inactive; negative”.

Q: What about the mutagenic call (Test System: AMES SALMONELLA TYPHIMURIUM, Strain/Indicator: TA98, Metabolic Activation: RAT LIVER S-9, PHENOBARBITAL, BETA-NAPHTHOFLAVONE, 3.5%, Method: STANDARD PLATE) of the same molecule?
A: The mutagenic call was “inactive; negative”.

Q: And the mutagenic call [3]?
A: The mutagenic call was “inactive; negative”.

Q: And the mutagenic call (Test System: AMES SALMONELLA TYPHIMURIUM, Strain/Indicator: TA100, Metabolic Activation: RAT LIVER S-9, PHENOBARBITAL, BETA-NAPHTHOFLAVONE, 3.5%, Method: STANDARD PLATE)?
A: Its mutagenic call is “inactive; negative”.

Q: And the mutagenic call [5]?
A: The mutagenic call was “inactive; negative”.

Q: What about the mutagenic call (Test System: AMES SALMONELLA TYPHIMURIUM, Strain/Indicator: TA1535, Metabolic Activation: RAT LIVER S-9, PHENOBARBITAL, BETA-NAPHTHOFLAVONE, 3.5%, Method: STANDARD PLATE) of the same molecule?
A: Its mutagenic call is “inactive; negative”.

Q: And the mutagenic call (Test System: ESCHERICHIA COLI, Strain/Indicator: WP2 UVR A, Metabolic Activation: NONE, Method: STANDARD PLATE)?
A: The mutagenic call was “inactive; negative”.

Q: What about the mutagenic call (Test System: ESCHERICHIA COLI, Strain/Indicator: WP2 UVR A, Metabolic Activation: RAT LIVER S-9, PHENOBARBITAL, BETA-NAPHTHOFLAVONE, 3.5%, Method: STANDARD PLATE) of the same molecule?
A: Its mutagenic call is “inactive; negative”.

Q: Which results are given for `CCCCCCCCCCSCn1cc[n+](C)c1`?
A: mutagenic call [1]: inactive; negative; mutagenic call [2]: inactive; negative; mutagenic call [3]: inactive; negative; mutagenic call [4]: active; positive; mutagenic call [5]: inactive; negative; mutagenic call [6]: active; positive; mutagenic call [7]: inactive; negative; mutagenic call [8]: inactive; negative; mutagenic call [9]: inactive; negative; mutagenic call [10]: inactive; negative
